Laboratory results: PubChem BioAssay AID488890 (Southern Research Specialized Biocontainment Screening …, 2010)
Records with an inconclusive call do not appear. Activity calls are given as the source filed them. No rule for the calls is given here.

test system: Mycobacterium tuberculosis non-replicating, growth inhibition; assay: growth inhibition of non-replicating M. tuberculosis (AID 488890)

Q: Which IC50 does the source give for `CC(/C=C/c1ccccc1)=N\NC(=O)c1ccc2c(c1)OCCO2` here?
A: The IC50 was 8.02 µM.

Q: With `CN1CCN(c2c(F)cc3c(=O)c(C(=O)O)cn4c3c2SCC4)CC1` as the molecule, how does the IC50 read?
A: The IC50 was 16.8 µM (inactive).

Q: With `COc1cccc2sc(N3CCN(C(=O)c4ccc([N+](=O)[O-])o4)CC3)nc12` as the molecule, how does the IC50 read?
A: The IC50 was < 0.1 µM.

Q: How did the IC50 turn out when `Nc1nnnn1/N=C/C(Br)=C/c1ccccc1` was run?
A: The IC50 was 13.5 µM (inactive).

Q: How did the IC50 turn out when `O=C(Nc1nccs1)c1ccccn1` was run?
A: Its IC50 is 14.5 µM (inactive).

Q: For `O=C(N/N=C/C=C/c1ccccc1[N+](=O)[O-])c1ccncc1`, which IC50 is on record?
A: The IC50 was 1.23 µM.

Q: For `Cc1ccc(NC(=O)ON=C2CCCC2)cc1`, which IC50 is on record?
A: The IC50 was 1.97 µM.

Q: How did the IC50 turn out when `O=C(NCC1CCCCC1)c1ccco1` was run?
A: The IC50 was 2.18 µM.

Q: For `COc1cc(CNCCc2ccccc2)cc(Br)c1OCC(=O)Nc1ccccc1C`, which IC50 is on record?
A: The IC50 was 8.58 µM.

Q: `Cc1cccc(Nc2nc(-c3ccccn3)cs2)n1` was tested. Which IC50 did it give?
A: The IC50 was 0.95 µM.

Q: `Sc1oc(-c2ccccc2)cc1C=Nc1ccccc1` was tested. Which IC50 did it give?
A: Its IC50 is 26 µM (inactive).

Q: How did the IC50 turn out when `C/C(=N/NC(=O)c1cc2ccccc2cc1O)C1C(=O)c2ccccc2C1=O` was run?
A: The IC50 was 1.24 µM.

Q: For `CC1=NN(C(=O)c2ccc(C)o2)C(O)(c2ccccc2)C1` (configuration not stated), which IC50 is on record?
A: The IC50 was 3.05 µM.

Q: How did the IC50 turn out when `CN(C)CCN1C(=O)c2oc3ccccc3c(=O)c2C1c1cccc(Br)c1` (configuration not stated) was run?
A: The IC50 was 23.1 µM (inactive).

Q: Which IC50 does the source give for `CC1=NN(C(=O)c2ccccc2Cl)C(O)(c2ccccc2)C1` (configuration not stated) here?
A: Its IC50 is 1.43 µM.

Q: For `O=C1C(Nc2ccccc2)=C/C(=N/S(=O)(=O)c2cccs2)c2ccccc21`, which IC50 is on record?
A: Its IC50 is 12 µM (inactive).

Q: With `CC(=O)n1cc(/C=C2/N=C(c3ccccc3)OC2=O)c2ccccc21` as the molecule, how does the IC50 read?
A: The IC50 was 2.59 µM.

Q: How did the IC50 turn out when `Cc1cc(C)nc(Sc2ncnc(N)c2[N+](=O)[O-])n1` was run?
A: The IC50 was 10.7 µM (inactive).

Q: For `COc1ccc(C(=O)COC(=O)c2ccc(Cl)nc2)c(OC)c1`, which IC50 is on record?
A: The IC50 was 10.7 µM (inactive).

Q: Which IC50 does the source give for `CCCc1cc(NCc2ccccn2)n2nc(C)c(-c3ccccc3)c2n1` here?
A: The IC50 was 2.23 µM.

Q: Which IC50 does the source give for `N/N=C(/Cc1nc2ccccc2[nH]1)c1ccc([N+](=O)[O-])cc1` here?
A: Its IC50 is 1.06 µM.

Q: `c1ccc(CSc2ccc(-c3ccccn3)nn2)cc1` was tested. Which IC50 did it give?
A: The IC50 was 8.02 µM.

Q: For `COC(=O)[C@H](CC(C)C)NC(=O)NCCC1=CCCCC1`, which IC50 is on record?
A: The IC50 was 12.8 µM (inactive).

Q: For `O=C(N/N=C/c1coc2ccccc2c1=O)c1ccc(Cl)cc1`, which IC50 is on record?
A: The IC50 was 0.97 µM.

Q: With `CN(C)CCC(=O)N1c2ccccc2Sc2ccc(C(F)(F)F)cc21` as the molecule, how does the IC50 read?
A: Its IC50 is 17.9 µM (inactive).

Q: How did the IC50 turn out when `Cc1ccc(NC(=O)COC(=O)CCc2c[nH]c3ccccc23)cc1[N+](=O)[O-]` was run?
A: Its IC50 is 4.83 µM.

Q: For `COC(=O)/C(=C1/Oc2cc(C)oc(=O)c2S1)C(F)(F)F`, which IC50 is on record?
A: The IC50 was < 0.1 µM.

Q: How did the IC50 turn out when `O=C(Nc1nccs1)c1cc2cc(Cl)ccc2oc1=O` was run?
A: The IC50 was 3.23 µM.

Q: For `O=C(COc1ccccc1)NCCSCc1ccc(Cl)cc1`, which IC50 is on record?
A: Its IC50 is 16.4 µM (inactive).

Q: For `O=C(CCS(=O)(=O)c1ccccc1)Nc1nc(-c2ccccn2)cs1`, which IC50 is on record?
A: Its IC50 is 11.1 µM (inactive).

Q: How did the IC50 turn out when `COc1ccc(N2C(=O)CC(Sc3nc4ccccc4s3)C2=O)cc1OC` (configuration not stated) was run?
A: Its IC50 is 14.2 µM (inactive).

Q: For `O=[N+]([O-])c1ccc2nc(SCc3cn4cc(Cl)ccc4n3)[nH]c2c1`, which IC50 is on record?
A: Its IC50 is 8.17 µM.

Q: Which IC50 does the source give for `Nc1cccn2c(-c3ccc(Cl)cc3)cnc12` here?
A: The IC50 was 8.34 µM.

Q: `CCOc1ccc(C(=O)Nc2nnc(C3=COCCO3)o2)cc1` was tested. Which IC50 did it give?
A: Its IC50 is 22.2 µM (inactive).

Q: With `Cc1ccccc1OCCC(=O)OCC(=O)NNC(=O)c1cccs1` as the molecule, how does the IC50 read?
A: Its IC50 is 21.4 µM (inactive).

Q: With `O=C(NCC1CCN(c2ccc(S(=O)(=O)N3CCOCC3)cc2)CC1)c1ccc(Cl)cc1` as the molecule, how does the IC50 read?
A: Its IC50 is 24.1 µM (inactive).

Q: With `O=C1CC(N2CCN(c3ccccc3)CC2)C(=O)N1CCc1ccccc1` (configuration not stated) as the molecule, how does the IC50 read?
A: The IC50 was 14 µM (inactive).

Q: `CCN1CCC(=NNC(=O)c2ccco2)CC1` was tested. Which IC50 did it give?
A: The IC50 was 42.6 µM (inactive).

Q: With `O=C(N/N=C/c1ccccn1)c1cccc([N+](=O)[O-])c1` as the molecule, how does the IC50 read?
A: Its IC50 is 3.91 µM.

Q: For `O=C(COC(=O)CC1CCCC1)Nc1ccc(OC(F)F)cc1`, which IC50 is on record?
A: Its IC50 is 10.8 µM (inactive).

Q: `CCCCNC(=O)COC(=O)c1cc(Br)ccc1Cl` was tested. Which IC50 did it give?
A: Its IC50 is 3.86 µM.

Q: How did the IC50 turn out when `C#CCOc1coc(COC(=O)c2ccccc2)cc1=O` was run?
A: Its IC50 is 48.5 µM (inactive).

Q: With `CCN(CC)c1ccc(-c2sc(Nc3ccccc3)n[n+]2-c2ccc(F)cc2)cc1` as the molecule, how does the IC50 read?
A: The IC50 was 9.04 µM.

Q: For `CCCOc1ccc(C(=O)NNC(=S)NC(=O)c2cccs2)cc1`, which IC50 is on record?
A: The IC50 was 0.46 µM.

Q: How did the IC50 turn out when `O=C(NNC(=O)C12CC3CC(CC(C3)C1)C2)c1ccccn1` was run?
A: Its IC50 is 6.79 µM.

Q: `O=C(N/N=C/c1cc(Br)cc(Cl)c1O)c1ccc2c(c1)OCO2` was tested. Which IC50 did it give?
A: The IC50 was < 0.1 µM.

Q: For `COc1cc(NCCC(=O)c2cccs2)c(OC)cc1Cl`, which IC50 is on record?
A: Its IC50 is 4.04 µM.

Q: For `O=C(O)c1ccc(-n2nc(C(F)(F)F)c3c2CCCC3)cc1`, which IC50 is on record?
A: Its IC50 is 34.2 µM (inactive).

Q: For `O=C(CCc1ccccc1)N/N=C/c1cc(Br)ccc1O`, which IC50 is on record?
A: Its IC50 is 0.44 µM.

Q: For `NNC(=O)COc1cccc(Oc2ccccc2)c1`, which IC50 is on record?
A: Its IC50 is 25.2 µM (inactive).

Q: With `CC(C)(C)c1ccc(C(=O)Nc2nnc(C3=COCCO3)o2)cc1` as the molecule, how does the IC50 read?
A: Its IC50 is 3.07 µM.

Q: For `CC(C)c1nnc(NC(=O)c2sc3ccccc3c2Cl)s1`, which IC50 is on record?
A: The IC50 was 9.84 µM.

Q: `COC(=O)COc1ccc2c(-c3ccc(OC)cc3)cc(=O)oc2c1` was tested. Which IC50 did it give?
A: The IC50 was 0.78 µM.

Q: With `COC(=O)CCC(=O)Nc1sc(Cc2ccccc2)c(C)c1C(N)=O` as the molecule, how does the IC50 read?
A: Its IC50 is 13.6 µM (inactive).

Q: For `CC1=NN(C(=O)COc2ccccc2C)C(O)(c2ccc(Cl)cc2)C1` (configuration not stated), which IC50 is on record?
A: The IC50 was 1.4 µM.

Q: For `COc1cc(/C=N/Nc2cccc3cccnc23)cc(OC)c1O`, which IC50 is on record?
A: The IC50 was 15.2 µM (inactive).

Q: For `O=C(NCCc1c[nH]c2ccccc12)c1cc2ccccc2oc1=O`, which IC50 is on record?
A: The IC50 was 4.78 µM.

Q: Which IC50 does the source give for `O=C1NC(=O)N(CCc2ccc(F)cc2)C(=O)/C1=C/C=C/c1ccccc1` here?
A: Its IC50 is 5.37 µM.

Q: How did the IC50 turn out when `CCOC(=O)c1csc(-c2snnc2C)n1` was run?
A: Its IC50 is 5.09 µM.

Q: `COc1ccc(/C=C/c2cc(-c3ccc(C)cc3)o[n+]2C)cc1` was tested. Which IC50 did it give?
A: Its IC50 is 4.7 µM.

Q: For `OC(C#CCN1CCOCC1)c1cccs1` (configuration not stated), which IC50 is on record?
A: Its IC50 is 7.53 µM.

Q: Which IC50 does the source give for `O=C(NNC(=O)c1cnccn1)c1ccc(Cl)c(Cl)c1` here?
A: The IC50 was 3.23 µM.

Q: For `O=C(Nc1nnc(-c2ccccc2Cl)o1)c1cccnc1`, which IC50 is on record?
A: The IC50 was 23.2 µM (inactive).

Q: `Clc1c(OCCCn2ccnc2)ccc2ccccc12` was tested. Which IC50 did it give?
A: Its IC50 is 9.74 µM.

Q: For `COc1ccc(/C=N/Nc2cc(C)nc(-n3nc(C)cc3C)n2)cc1`, which IC50 is on record?
A: Its IC50 is 3.25 µM.

Q: How did the IC50 turn out when `COc1ccc(CCNc2nc(-c3ccccn3)cs2)cc1OC` was run?
A: Its IC50 is 8.4 µM.

Q: With `Cc1onc(-c2ccccc2)c1C(=O)N/N=C/c1ccc([N+](=O)[O-])s1` as the molecule, how does the IC50 read?
A: The IC50 was 8.09 µM.

Q: For `Cc1noc2ncnc(Sc3ccc(Cl)cc3)c12`, which IC50 is on record?
A: Its IC50 is 10.9 µM (inactive).

Q: `NC(=O)N/N=C/c1ccccc1OC(=O)c1cc2ccccc2oc1=O` was tested. Which IC50 did it give?
A: The IC50 was 3.77 µM.

Q: `CCOC(=O)c1ccc(NC2OC(=O)c3ccccc32)cc1` (configuration not stated) was tested. Which IC50 did it give?
A: The IC50 was 3.99 µM.

Q: `Cc1nc(/N=C(\N)NC(=O)NC2CCCCC2)nc2ccccc12` was tested. Which IC50 did it give?
A: Its IC50 is 10.3 µM (inactive).

Q: For `CSc1nn(-c2ccc(C(=O)OCC(=O)NC(=O)NC(C)C)cc2)c(=S)s1`, which IC50 is on record?
A: The IC50 was 16 µM (inactive).

Q: Which IC50 does the source give for `COc1ccc2nc(C)cc(N/N=C/c3ccc(F)cc3)c2c1` here?
A: Its IC50 is 7.75 µM.

Q: `O=C(NC1CCCC1)c1nc2c(nnn2Cc2cccc(Cl)c2)c(=O)[nH]1` was tested. Which IC50 did it give?
A: Its IC50 is 19.8 µM (inactive).

Q: `COc1ccc(-c2nnc(NC(=O)c3ccc(S(=O)(=O)N4COCC4(C)C)cc3)o2)cc1` was tested. Which IC50 did it give?
A: The IC50 was 11.2 µM (inactive).

Q: With `CCCCOC(=O)Cn1c(-c2ccccc2)nc2ccccc2c1=O` as the molecule, how does the IC50 read?
A: Its IC50 is 11.3 µM (inactive).

Q: Which IC50 does the source give for `Nc1scc(-c2ccncc2)c1Cl` here?
A: Its IC50 is 14 µM (inactive).

Q: Which IC50 does the source give for `O=C(OCC(=O)N1CCCC1)c1cc(Br)ccc1Cl` here?
A: Its IC50 is 6.94 µM.

Q: `CC(=O)c1c(C)n(C)c2ccc(OC(=O)c3ccco3)cc12` was tested. Which IC50 did it give?
A: Its IC50 is 10.3 µM (inactive).

Q: `O=c1c2cc(Br)ccc2nc(-c2ccc([N+](=O)[O-])cc2)n1O` was tested. Which IC50 did it give?
A: The IC50 was 0.99 µM.

Q: `O=C(N/N=C\c1ccc([N+](=O)[O-])s1)C1COc2ccccc2O1` (configuration not stated) was tested. Which IC50 did it give?
A: The IC50 was 4.94 µM.

Q: How did the IC50 turn out when `O=C(Oc1ccccc1)c1cccc(COC(=O)c2cnccn2)c1` was run?
A: Its IC50 is 28.6 µM (inactive).
